Data from patent publication US12116365B2, “Heterocyclic compounds and uses thereof” (Opna Bio SA, priority 2015, dated 2024).
“Also recorded” adds a separate entry of the source.

What was measured:
[1] = Toxicity profile, body weight in Ba/F3 splenomegaly model; format: in vivo; parameters: Delta Body Weight Loss: unit not given here; conditions: for observed toxicity (in words): 10 mg/kg over 7 days of dosing; for Delta Body Weight Loss: 10 mg/kg oral QD
From the text: The […] cell line, Ba/F3, depends on the addition of IL-3 for growth in cell culture. However Ba/F3 cells engineered to express a full length oncogene is capable of rendering Ba/F3 cells factor-independent, but become apoptotic when the oncogene or downstream signaling is inhibited by the addition of small molecule inhibitors. When injected into the tail veins of nude mice, the factor-independent Ba/F3 cells home to the spleen and proliferate to cause a marked splenomegaly. The in vivo proliferation of the factor-independent Ba/F3 cells and appearance of splenomegaly are directly dependent on the activity of the Ba/F3 cells and can be blocked by oral administration of compounds that are effective inhibitors of cell growth. Therefore, this animal model can be used to ascertain the effective doses for Ba/F3 cell inhibition, evaluation of both PK/PD effects as well as a readout of toxicity or MTD.
FIG. 2 illustrates the observed toxicity when dosing Compound P-001 and Compound Z at 10 mg/kg to nu/nu mice over a period of 7 days.

[2] = Rat PK, cassette dosing, IV and PO; format: in vivo; conditions: for Cl (mL/min/Kg) / Vss (L/Kg) / AUC / Cmax / Tmax / half-life: Mean (SE); for AUC / Cmax / Tmax / half-life / bioavailability: plasma
Method: Rat PK data was determined using a cassette dosing format with 5 compounds administered to each of three rats for IV and three rats for PO. The IV dose was 1 mg/kg for each compound in 8.75% solutol, 8.75% ethanol, 12.5% DMSO and 70% water by volume. The PO dose was 2 mg/kg for each compound in 1% methylcellulose in water, 10% DMSO by volume. Plasma IV samples were collected at 15 min, 30 min, 1 hr, 2 hrs, 4 hrs, 8 hrs, and 24 hrs. Plasma PO samples were collected at 30 min, 1 hr, 2 hrs, 4 hrs, 8 hrs, and 24 hrs. Plasma drug concentrations were determined by LC/MS/MS after standard curve calibration for each test article. Dosing solutions were also analyzed for test article and used to calculate the administered dose. The PK parameters were calculated using WinNonLin (v 6.3, Phoenix 64, Pharsight) using a noncompartmental model.
Tables 1 and 2 show comparative data for both intravenous (IV) and peroral (PO) administration in rat for Compound P-001 of this disclosure and a similar structural compound disclosed in the WO 2014/145051, Compound Z. Values are reported as the Mean with the Standard Error (SE) in parentheses.

[3] = test system: IPC298 Xenograft; assay: IPC298 xenograft model, tumor growth; format: in vivo, mice; conditions: for antitumor activity (in words): 10 mg/kg po QD x16; for Average Tumor Volume (mm^3) / Tumor Size (Day 27, mm^3) / TGI (%): 10 mg/kg po QD; for TGI (%): tumor growth inhibition
Method: Treatment: The treatments started on Day 11 after tumor inoculation when the mean tumor size reached approximately 150 mm^3. Mice were randomized into 10 study groups and each group consisted of 8 mice. The test articles were administrated to the tumor-bearing mice according to predetermined treatment regimen as shown in Table 3.
Tumor measurements and the endpoints: The major endpoint was to see if the tumor growth could be delayed or regressed. Tumor size was measured twice a week in two dimensions using a caliper, and the volume was expressed in mm^3 using the formula: V=0.5a×b^2 where a and b are the long and short diameters of the tumor, respectively. The tumor size was then used for calculation of tumor growth inhibition (TGI, in percent). The TGI value is an indication of antitumor effectiveness: TGI=(1−T/C)×100%. T and C are the means of relative tumor volumes of the treated and control groups, respectively. T and C are calculated using the formula: T=Td/T0×100%, C=Cd/C0×100%, where Td and Cd are tumor volumes of the treated and control animals, respectively, on Day 28 after tumor inoculation; T0 and C0 are tumor volumes of the treated and control animals, respectively, at the start of the treatment

[4] = Table 2, titled Peroral (PO) Administration in Rat
[5] = 1 mg/kg, Table 1, titled Intravenous (IV) Administration in Rat
[6] = 2 mg/kg, Table 2, titled Peroral (PO) Administration in Rat

| SMILES | observed toxicity (in words) [1] | Delta Body Weight Loss ([1]; Day 1) | Delta Body Weight Loss ([1]; Day 2) | Delta Body Weight Loss ([1]; Day 3) | Delta Body Weight Loss ([1]; Day 5) | Delta Body Weight Loss ([1]; Day 6) | Delta Body Weight Loss ([1]; Day 7) | Cl (mL/min/Kg) [2, 4] | Vss (L/Kg) [2, 4] | AUC [2, 5] | Cmax [2, 5] | Tmax [2, 5] | half-life [2, 5] | AUC [2, 6] | bioavailability [2, 6] | antitumor activity (in words) [3] | Average Tumor Volume (mm^3) ([3]; Day 0) | Average Tumor Volume (mm^3) ([3]; Day 4) | Average Tumor Volume (mm^3) ([3]; Day 6) | Average Tumor Volume (mm^3) ([3]; Day 8) | other results |
| --- | --- | --- | --- | --- | --- | --- | --- | --- | --- | --- | --- | --- | --- | --- | --- | --- | --- | --- | --- | --- | --- |
| Cc1noc(C)c1-c1cnc2c(-c3ccc(C(=O)O)cc3)cn(C(C)(c3ccccn3)c3ccccn3)c2c1 [Compound P-001, 4-(1-(1,1-di(pyridin-2-yl)ethyl)-6-(3,5-dimethylisoxazol-4-yl)-1H-pyrrolo[3,2-b]pyridin-3-yl)benzoic acid] | no toxicity was observed | 0 | 0.75 | 1.375 | 1.125 | 1.825 | 2.075 | 3 (0) mL/min/Kg | 0.469 (0.015) L/Kg | 7670 ng·h/mL | 1210 ng/mL | 40.2 min | 248 min | 7670 ng·h/mL | 103% | strong antitumor activity; also recorded: strong therapeutic efficacy | 124.7 mm^3 | 94.5 mm^3 | 91.5 mm^3 | 90.0 mm^3 | rat PK compared to Compound Z (in words) ([2]; IV and PO): dramatic improvement; Average Tumor Volume (mm^3) ([3]; Day 11): 96.9 mm^3; Average Tumor Volume (mm^3) ([3]; Day 13): 99.2 mm^3; Tumor Size (Day 27, mm^3) [3]: 99.2 ± 13.5 mm^3; TGI (%) [3]: 112% |
| Cc1noc(C)c1-c1cnc2c(-c3ccc(C(=O)O)cc3)cn(C(c3ccccn3)c3ccccn3)c2c1 [Compound Z, reference compound] | significant toxicity after the 2nd day of dosing | 0 | −0.125 | −0.6 | −1.125 | −2.475 | −3.75 | 36 (4) mL/min/Kg | 1.061 (0.109) L/Kg | 125 ng·h/mL | 80 ng/mL | 30 min | 78.6 min | 125 ng·h/mL | 17% | moderate antitumor activity | 124.0 mm^3 | 119.8 mm^3 | 124.0 mm^3 | 120.6 mm^3 | Average Tumor Volume (mm^3) ([3]; Day 11): 106.8 mm^3; Average Tumor Volume (mm^3) ([3]; Day 13): 141.5 mm^3; Tumor Size (Day 27, mm^3) [3]: 141.5 ± 16.3 mm^3; TGI (%) [3]: 92% |
